Data set [1] has as its system E. faecium ATCC 51559 (vanA). It counts as cell-based, Enterococcus faecium. The method, then:
(§1) The minimum inhibitory concentration (MIC) was determined by microdilution following the EUCAST and CLSI guidelines via the broth microdilution assay on a 96-well plate. Substances were dissolved in saline solution (0.9%) at a concentration equimolar to 1.28 mg/mL vancomycin. With an increasing hydrophobicity, some substances had to be pre-dissolved in DMSO. The final concentration of DMSO remained below 1.5% and was compared to the DMSO control (no antimicrobial effect was observed up to the highest concentration tested (10%)). All substances were serially diluted on the 96-well plate using Mueller-Hinton-Broth II (cation adjusted). Vancomycin was always used as a control. For bacterial loading, an overnight culture of the referring strain was taken and adjusted to a turbidity corresponding to 10^8 cfu/mL. The bacterial suspension was further diluted to load a bacterial number of 10^6 cfu/mL on the 96-well plate and incubate it for 18 h at 35 ± 1 °C, as described before. MIC was defined as the lowest concentration without visible growth.

In data set [2] the test system is Enterococcus casseliflavus ATCC 700327 (vanC). It counts as cell-based. Conditions: ATCC 700327, 18 h. The protocol:
as §1

In data set [3] the test system is Enterococcus faecium UL602570 (vanA, clinical isolate). Type of data set: cell-based. The method, then:
as §1

Data set [4] has as its system E. faecalis ATCC 51299 (vanB). It counts as cell-based, Enterococcus faecalis. To be noted: ATCC 51299, 18 h. The protocol: as §1
The conditions of data set [5]: comparison statement of the abstract, no reference given; cited from earlier work. An excerpt: Multidrug-resistant bacteria represent one of the most important health care problems worldwide. While there are numerous drugs available for standard therapy, there are only a few compounds capable of serving as a last resort for severe infections. Therefore, approaches to control multidrug-resistant bacteria must be implemented. Here, a strategy of reactivating the established glycopeptide antibiotic vancomycin by structural modification with polycationic peptides and subsequent fatty acid conjugation to overcome the resistance of multidrug-resistant bacteria was followed. This study especia ...

In data set [6] the test system is human blood (red blood cells). Description: Hemolysis (hemoglobin release assay). Type of data set: cell-based. Conditions: concentrations above 100 µM, range applied 1-900 µM, 2 h, 37 °C. The protocol: Hemolytic activity was determined by the hemoglobin release assay on a 96-well plate. Fresh venal blood was collected from volunteers in anticoagulant tubes. The blood samples were centrifuged for 3 min at 2500 rpm, and afterwards, the supernatant was discarded and PBS (pH 7.4) was added. The tubes were gently inverted, and the previous step was repeated two times. Substances were serial two-fold diluted in PBS (pH 7.4) on a 96-well V-bottom plate. Triton X-100 (1% in PBS) was used as a positive control (Xpos). […] In total, 50 µL of the purified blood samples was added to all columns. After 2 h incubation at 37 °C, the 96-well plate was centrifuged at 4000 rpm for 2 min. The supernatant was transferred to a new flat-bottom 96-well plate and absorption was measured at 554 nm. The percentage of hemolysis was calculated according to the following equation:% hemolysis = 100 × (Xsample − Xblank)/(Xpos − Xblank).(1)

The test system of data set [7] is human blood (red blood cells). To be noted: cited from earlier work. The method, then: In order to investigate the hemolytic behavior, human blood from healthy volunteers was taken and exposed to different concentrations of selected conjugates. As a control, unmodified vancomycin, known to have non-hemolytic properties up to 12 mM [40], was used (Figure 4).
Where [8] appears, read: UL602570 (vanA, clinical isolate, 18 h).

In brackets after ≈: the same amount, converted by molar mass.

For the compound `CCCCCCCCCCCC(=O)N[C@@H](CCCNC(=N)N)C(=O)N[C@@H](CCCNC(=N)N)C(=O)N[C@@H](CCCNC(=N)N)C(=O)N[C@@H](CSC1CC(=O)N(CC2CCC(C(=O)NCCN[C@@]3(C)C[C@H](O[C@H]4[C@H](Oc5c6cc7cc5Oc5ccc(cc5Cl)[C@@H](O)[C@@H](NC(=O)[C@@H](CC(C)C)NC)C(=O)N[C@@H](CC(N)=O)C(=O)N[C@H]7C(=O)N[C@H]5C(=O)N[C@H](C(=O)N[C@H](C(=O)O)c7cc(O)cc(O)c7-c7cc5ccc7O)[C@H](O)c5ccc(c(Cl)c5)O6)O[C@H](CO)[C@@H](O)[C@@H]4O)O[C@@H](C)[C@H]3O)CC2)C1=O)C(N)=O` (stereo partly drawn) [VV-R3C-C12], the MIC median in data set [1] (ATCC 51559, 18 h) was 3.88 µg/mL (≈ 1.56 µM); in data set [2] it was 2.5 µg/mL (≈ 1.01 µM); in data set [3] (setting [8]), 0.24 µg/mL (≈ 0.0967 µM); in data set [4], 4 µg/mL (≈ 1.61 µM). Besides, the MIC range was in the range of 3.88 to 7.75 µg/mL in data set [1] (ATCC 51559, 18 h); 0.5 to 4 µg/mL in data set [2]; 0.06 to 0.48 µg/mL in data set [3] (setting [8]).
In the case of `CN[C@H](CC(C)C)C(=O)N[C@H]1C(=O)N[C@@H](CC(N)=O)C(=O)N[C@H]2C(=O)N[C@H]3C(=O)N[C@H](C(=O)N[C@H](C(=O)O)c4cc(O)cc(O)c4-c4cc3ccc4O)[C@H](O)c3ccc(c(Cl)c3)Oc3cc2cc(c3O[C@@H]2O[C@H](CO)[C@@H](O)[C@H](O)[C@H]2O[C@H]2C[C@](C)(N)[C@H](O)[C@H](C)O2)Oc2ccc(cc2Cl)[C@H]1O` [vancomycin], the “resistant to up to (vancomycin concentration)” value in data set [1] (E. faecium ATCC 51559, vanA) is recorded as “up to 1024 mg/L”. For the same compound, the “resistance against vancomycin up to (concentration)” value in data set [3] (E. faecium UL602570, vanA clinical isolate) is “up to 640 mg/L”. The excretion route result in data set [5] is “rapidly excreted by the kidneys”. Moreover, in data set [6], the “hemolytic effect at higher concentrations” value is on record as “could neither be observed”. The “non-hemolytic properties up to (concentration)” value in data set [7] is on record as “up to 12 mM”.

Source of the values: publication PMC7345083, “Vancomycin-Lipopeptide Conjugates with High Antimicrobial Activity on Vancomycin-Resistant Enterococci” (Pharmaceuticals, 2020).
